# Laboratory results as given in US20240208912A1 (Mirati Therapeutics, Inc., priority 2021, published 2024).
# Where two headings read alike, the source gives them in different places.
# Key:
# [1] = test system: HCT116 homozygous MTAP knockout cells; assay: Proliferation assay (CellTiter-Glo, 10 days) in HCT116 homozygous MTAP knockout cells; format: cell-based; conditions: CellTiter-Glo after 10 days of treatment, read-out: Proliferation IC50 (nM) HCT116 MTAP_KO
# Method: HCT116 cells were genetically engineered to knock out the function of both MTAP alleles using a CRISPR/Cas9 system and an sgRNA targeting the MTAP gene. Following Cas9/MTAP sgRNA transduction, clones were screened to confirm that each allele of the MTAP gene had been inactivated (i.e., homozygous MTAP knock out) creating an MTAP-deficient cell.
# Control samples were analyzed in parallel.
# Briefly, on Day 0, 250 HCT116 parental or HCT116 homozygous MTAP knockout cell were seeded in 96 well plates in McCoy's 5A supplemented with […] fetal bovine serum and pen/strep and the cells were incubated overnight at 37° C. plus 5% CO2.
# The following day, cells were treated with DMSO vehicle control or a dose response of PRMT5 inhibitors and incubated at 37 C plus 5% CO2 for five days. On Day 6, the cells were trypsinized and split 1:10 into new 96-well plates with fresh medium containing the same concentration of PRMT5 inhibitor and incubated for an additional 5 days at 37° C. plus 5% CO^2.
# On Day 11, the viability of the cells was measured using a CTG assay kit (CellTiter-Glo; Promega cat.no G7573) in accordance with the manufacturer's instructions. The IC50 values for each compound after 10 days of treatment were calculated using GraphPad PRISM software.
# PRMT5/MEP50 complex = molecular target: T1, PRMT5/MEP50 complex (Homo sapiens, UniProt O14744); assay: PRMT5:MEP50 HotSpot Assay (full-length histone H2A substrate, plus and minus MTA); format: biochemical
# T1 construct: purchased Reaction Biology Corporation
# T1 sequence (O14744 2-637 limits assumed): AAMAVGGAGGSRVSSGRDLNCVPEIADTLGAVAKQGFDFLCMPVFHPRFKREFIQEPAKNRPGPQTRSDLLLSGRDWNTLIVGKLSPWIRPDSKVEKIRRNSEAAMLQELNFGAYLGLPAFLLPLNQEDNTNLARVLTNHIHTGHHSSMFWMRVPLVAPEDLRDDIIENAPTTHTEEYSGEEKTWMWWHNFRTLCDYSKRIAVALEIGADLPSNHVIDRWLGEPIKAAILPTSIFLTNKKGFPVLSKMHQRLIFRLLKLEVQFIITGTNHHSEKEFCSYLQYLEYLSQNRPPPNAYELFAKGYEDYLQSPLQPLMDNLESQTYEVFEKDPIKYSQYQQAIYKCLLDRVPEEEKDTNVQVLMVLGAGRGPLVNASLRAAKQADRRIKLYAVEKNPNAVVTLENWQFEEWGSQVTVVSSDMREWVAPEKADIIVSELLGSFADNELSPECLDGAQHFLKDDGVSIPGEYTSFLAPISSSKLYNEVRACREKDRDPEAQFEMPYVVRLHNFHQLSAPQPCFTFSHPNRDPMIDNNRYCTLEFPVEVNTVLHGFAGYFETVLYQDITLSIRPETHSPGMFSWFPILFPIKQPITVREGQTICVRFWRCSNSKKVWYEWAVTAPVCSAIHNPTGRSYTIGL
# T1 sequence (Q9BQA1 2-342 partner limits assumed): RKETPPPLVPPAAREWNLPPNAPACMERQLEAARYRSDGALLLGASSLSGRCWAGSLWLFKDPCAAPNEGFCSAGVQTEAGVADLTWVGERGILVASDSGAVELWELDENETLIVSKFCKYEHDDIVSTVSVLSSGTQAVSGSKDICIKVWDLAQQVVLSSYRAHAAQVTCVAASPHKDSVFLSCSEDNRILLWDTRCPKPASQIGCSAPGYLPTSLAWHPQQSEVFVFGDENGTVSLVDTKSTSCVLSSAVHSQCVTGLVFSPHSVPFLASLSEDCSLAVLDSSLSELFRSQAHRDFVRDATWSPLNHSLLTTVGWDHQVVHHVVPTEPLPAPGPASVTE
# Method: The PRMT5 inhibitory activity of compounds of the present invention was determined using either a PRMT5:MEP50 FlashPlate Assay (Reaction Biology Corporation) or a PRMT5:MEP50 HotSpot Assay (Reaction Biology Corporation).
# The assay uses recombinant full-length hi stone H2A as the PRMT5 substrate. […] The reaction was stopped and transferred to filter paper for detection. The amount of tritiated H2A in each sample was determined using a scintillation counter.
# [2] = IC50 + 2 μM MTA, in the presence of 2 μM MTA
Structure (SMILES),IC50 (PRMT5/MEP50 complex; [2]) [nM],further results
"Cc1c(F)c(-c2c(-c3ccc4c(=O)[nH]nc(CN)c4c3)cnn2C)c(C#N)c2cc(Cl)cnc12 (atropisomer, axis not shown; (M)) [Example 16-34, (M)-6-[4-[4-(aminomethyl)-1-oxo-2H-phthalazin-6-yl]-2-methyl-pyrazol-3-yl]-3-chloro-7-fluoro-8-methyl-quinoline-5-carbonitrile]",–,IC50 [1]: 20 nM
"Cn1ncc(-c2ccc3c(=O)[nH]nc(CN)c3c2)c1-c1c(C#N)cc2cccnc2c1Cl (atropisomer, axis not shown; (M)) [Example 16-84, (M)-7-(4-(4-(aminomethyl)-1-oxo-1,2-dihydrophthalazin-6-yl)-1-methyl-1H-pyrazol-5-yl)-8-chloroquinoline-6-carbonitrile]",–,IC50 [1]: 123 nM
"Cn1ncc(-c2ccc3c(=O)[nH]nc(CN)c3c2)c1-c1c(C#N)cc2ncccc2c1Cl (atropisomer, axis not shown; (M)) [Example 16-86, (M)-6-(4-(4-(aminomethyl)-1-oxo-1,2-dihydrophthalazin-6-yl)-1-methyl-1H-pyrazol-5-yl)-5-chloroquinoline-7-carbonitrile]",–,IC50 [1]: 183 nM
"Cn1ncc(-c2ccc3c(=O)[nH]nc(CN)c3c2)c1-c1cccc2c1COCC2(C)O (atropisomer, axis not shown; (M)) [Example 16-103, (M)-4-(aminomethyl)-6-(5-(4-hydroxy-4-methylisochroman-8-yl)-1-methyl-1H-pyrazol-4-yl)phthalazin-1(2H)-one]",–,"IC50 ([1]; Homo sapiens, HCT-116, 240 h): 4000 nM"
"Cc1c(F)c(-c2c(-c3ccc4c(=O)[nH]nc(CN)c4c3)cnn2C)c(C#N)c2cc(Cl)cnc12 (atropisomer, axis not shown; (P)) [Example 16-33]",–,IC50 [1]: 626 nM
"Cn1ncc(-c2ccc3c(=O)[nH]nc(CN)c3c2)c1-c1c(C#N)cc2ncccc2c1Cl (atropisomer, axis not shown; (P)) [Example 16-85, (P)-6-(4-(4-(aminomethyl)-1-oxo-1,2-dihydrophthalazin-6-yl)-1-methyl-1H-pyrazol-5-yl)-5-chloroquinoline-7-carbonitrile]",–,IC50 [1]: 4380 nM
"Cn1ncc(-c2ccc3c(=O)[nH]nc(CN)c3c2)c1-c1c(F)cc2c(c1C#N)OCO2 (atropisomer, axis not shown; (P)) [Example 16-87, (P)-5-[4-[4-(aminomethyl)-1-oxo-2H-phthalazin-6-yl]-2-methyl-pyrazol-3-yl]-6-fluoro-1,3-benzodioxole-4-carbonitrile]",–,"IC50 ([1]; Homo sapiens, HCT-116, 240 h): 158 nM"
"Cn1ncc(-c2ccc3c(=O)[nH]nc(CN)c3c2)c1-c1cccc2c1COCC2(C)O (atropisomer, axis not shown; (P)) [Example 16-104, (P)-4-(aminomethyl)-6-(5-(4-hydroxy-4-methylisochroman-8-yl)-1-methyl-1H-pyrazol-4-yl)phthalazin-1(21)-one]",–,IC50 [1]: 3450 nM
"Cn1ncc(-c2ccc3c(=O)[nH]nc(CN)c3c2)c1-c1ccccc1C#N [Example 4-100, 2-(4-(4-(aminomethyl)-1-oxo-1,2-dihydrophthalazin-6-yl)-1-methyl-1H-pyrazol-5-yl)benzonitrile]",–,"IC50 (PRMT5/MEP50 complex; in the absence of MTA, read-out: IC50): > 10000 nM"
"N#Cc1ccccc1-n1c(-c2ccc3c(=O)[nH]nc(CN)c3c2)cnc1CO [Example 4-194, 2-(5-(4-(aminomethyl)-1-oxo-1,2-dihydrophthalazin-6-yl)-2-(hydroxymethyl)-1H-imidazol-1-yl)benzonitrile]",3820,–
"Cn1ncc(-c2ccc3c(=O)[nH]nc(CN)c3c2)c1-c1cc2ccccn2c1C#N [Example 4-227, 2-(4-(4-(aminomethyl)-1-oxo-1,2-dihydrophthalazin-6-yl)-1-methyl-1H-pyrazol-5-yl)indolizine-3-carbonitrile]",–,IC50 [1]: 2370 nM
"Cn1ncc(-c2ccc3c(=O)[nH]nc(CN)c3c2)c1-c1cc(Cl)c2c(c1C#N)OCCC2 [Example 4-261, 7-[4-[4-(aminomethyl)-1-oxo-2H-phthalazin-6-yl]-2-methyl-pyrazol-3-yl]-5-chloro-chromane-8-carbonitrile]",–,"IC50 ([1]; Homo sapiens, HCT-116, 240 h): 81 nM"
"Cn1ncc(-c2ccc3c(=O)[nH]nc(CN)c3c2)c1-c1ccc2n1C(=O)CCC2 [Example 4-278, 4-(aminomethyl)-6-(1-methyl-5-(5-oxo-5,6,7,8-tetrahydroindolizin-3-yl)-1H-pyrazol-4-yl)phthalazin-1(2H)-one]",1000,–
"Cc1ncc(-c2ccc3c(=O)[nH]nc(CN)c3c2)n1-c1sc2ccccc2c1C#N [Example 4-288, 2-(5-(4-(aminomethyl)-1-oxo-1,2-dihydrophthalazin-6-yl)-2-methyl-1H-imidazol-1-yl)benzo[b]thiophene-3-carbonitrile]",1480,–
"Cn1ncc(-c2ccc3c(=O)[nH]nc(CN)c3c2)c1N1CCCCC1C#N (centres unmarked) [Example 4-289, 1-(4-(4-(aminomethyl)-1-oxo-1,2-dihydrophthalazin-6-yl)-1-methyl-1H-pyrazol-5-yl)piperidine-2-carbonitrile]",4080,–
"Cn1ncc(-c2ccc3c(=O)[nH]nc(CN)c3c2)c1N1CCCC1C#N (centres unmarked) [Example 4-290, 1-(4-(4-(aminomethyl)-1-oxo-1,2-dihydrophthalazin-6-yl)-1-methyl-1H-pyrazol-5-yl)pyrrolidine-2-carbonitrile]",168,–
"Cn1nnc(-c2ccc3c(=O)[nH]nc(CN)c3c2)c1-c1sc2ccccc2c1C#N [Example 4-291, 2-(4-(4-(aminomethyl)-1-oxo-1,2-dihydrophthalazin-6-yl)-1-methy1-1H-1,2,3-triazol-5-yl)benzo[b]thiophene-3-carbonitrile]",737,–
"Cn1ncc(-c2ccc3c(=O)[nH]nc([C@H](N)C(F)F)c3c2)c1-c1ccc2ccccc2c1C#N [Example 9-6, 2-[4-[4-[(1S)-1-amino-2,2-difluoro-ethyl]-1-oxo-2H-phthalazin-6-yl]-2-methyl-pyrazol-3-yl]naphthalene-1-carbonitrile]",> 10000,–
"Cn1ncc(-c2cc(C(=O)C(F)F)c3c(=O)[nH]nc(CN)c3c2)c1-c1sc2ccccc2c1C#N [Example 15-9, 2-(4-(4-(aminomethyl)-8-(2,2-difluoro-acetyl)-1-oxo-1,2-dihydrophthalazin-6-yl)--methyl-1H-pyrazol-5-yl)benzo[b]-thiophene-3-carbonitrile]",1270,–

# Further lines, with some results ahead:
IC50 (PRMT5/MEP50 complex; [2]) [nM],Structure (SMILES),further results
92,"Cn1ncc(-c2ccc3c(=O)[nH]nc(CN)c3c2)c1-c1c(C(F)F)cc2ccccc2c1C#N (single isomer, unassigned) [Example 16-130, (M)-2-(4-(4-(aminomethyl)-1-oxo-1,2-dihydrophthalazin-6-yl)-1-methyl-1H-pyrazol-5-yl)-3-(difluoromethyl)-1-naphthonitrile]",–
1310,"Cn1ncc(-c2cnc3c(=O)[nH]nc(CN)c3c2)c1-c1sc2ccccc2c1C#N [Example 17-4, 2-(4-(5-(aminomethyl)-8-oxo-7,8-dihydropyrido[2,3-d]pyridazin-3-yl)-1-methyl-1H-pyrazol-5-yl)benzo[b]thiophene-3-carbonitrile]",–
7510,COc1nnc(CN)c2cc(-c3cnn(C)c3-c3sc4ccccc4c3C#N)ccc12 [Example 17-6],–
2310,"Cn1ncc(-c2cc3c(CN)n[nH]c(=O)c3s2)c1-c1ccc2ccccc2c1C#N [Example 17-7, 2-(4-(4-(aminomethyl)-7-oxo-6,7-dihydrothieno[2,3-d]pyridazin-2-yl)-1-methyl-1H-pyrazol-5-yl)-1-naphthonitrile]",–
1270,C[C@@H](N)c1n[nH]c(=O)c2ccc(-c3cnn(C)c3-c3ccc4ccccc4c3C#N)nc12 [Example 20-1],–
200,C[C@H](N)c1n[nH]c(=O)c2ccc(-c3cnn(C)c3-c3ccc4ccccc4c3C#N)nc12 [Example 20-2],–
1030,"Cn1ncc(-c2ccc3c(c2)C(CN)NC3=O)c1-c1sc2ccccc2c1C#N (centres unmarked) [Example 20-4, 2-(4-(3-(aminomethyl)-1-oxoisoindolin-5-yl)-1-methyl-1H-pyrazol-5-yl)benzo[b]thiophene-3-carbonitrile]",–
635,"Cn1ncc(-c2ccc3c(c2)C(CCN)NC3=O)c1-c1sc2ccccc2c1C#N (centres unmarked) [Example 20-5, 2-[4-[3-(2-aminoethyl)-1-oxo-isoindolin-5-yl]-2-methyl-pyrazol-3-yl]benzothiophene-3-carbonitrile]",–
2250,"Cc1ncn(-c2ccc3c(=O)[nH]nc(CN)c3c2)c1-c1sc2ccccc2c1C#N [Example 20-6, 2-[3-[4-(aminomethyl)-1-oxo-2H-phthalazin-6-yl]-5-methyl-imidazol-4-yl]benzothiophene-3-carbonitrile]",–
> 10000,"Cn1ncc(-c2ccc3c(c2)C(C)(N)CNC3=O)c1-c1sc2ccccc2c1C#N (centres unmarked) [Example 20-7, 2-(4-(4-amino-4-methyl-1-oxo-1,2,3,4-tetrahydroisoquinolin-6-yl)-1-methyl-1H-pyrazol-5-yl)benzo[b]thiophene-3-carbonitrile]",–
